Test results published in ChEMBL document CHEMBL1201862, “PubChem BioAssay data set” (2004).
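Exposure lasted 48 hours, with cells grown in 96-well plates and compounds tested at five concentrations. GI50 is the concentration that inhibits growth by half.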 Active and inactive are the calls of the source. No stated cut-off is given here; in the data, active = GI50 up to about 1.1 µM and inactive = higher.

How the values were obtained:
Test in all cases: inhibition of tumour cell growth, NCI panel, 48 h
786-0 = tested on: 786-0
A498 = tested on: A498
A549 = tested on: A549
ACHN = tested on: ACHN
BT-549 = tested on: BT-549
CAKI-1 = tested on: CAKI-1
CCRF-CEM = tested on: CCRF-CEM
COLO 205 = tested on: COLO 205
DU-145 = tested on: DU-145
EKVX = tested on: EKVX
HCT-116 = tested on: HCT-116
HCT-15 = tested on: HCT-15
HL-60 = tested on: HL-60
HOP-62 = tested on: HOP-62
HOP-92 = tested on: HOP-92
HT-29 = tested on: HT-29
IGROV-1 = tested on: IGROV-1
K562 = tested on: K562
KM12 = tested on: KM12
LOX IMVI = tested on: LOX IMVI
M14 = tested on: M14
MCF7 = tested on: MCF7
MDA-MB-231 = tested on: MDA-MB-231
MDA-MB-435 = tested on: MDA-MB-435
MDA-N = tested on: MDA-N
MOLT-4 = tested on: MOLT-4
NCI-H226 = tested on: NCI-H226
NCI-H23 = tested on: NCI-H23
NCI-H460 = tested on: NCI-H460
NCI/ADR-RES = tested on: NCI/ADR-RES
OVCAR-3 = tested on: OVCAR-3
OVCAR-4 = tested on: OVCAR-4
OVCAR-5 = tested on: OVCAR-5
OVCAR-8 = tested on: OVCAR-8
PC-3 = tested on: PC-3
RPMI-8226 = tested on: RPMI-8226
RXF 393 = tested on: RXF 393
SF-295 = tested on: SF-295
SF-539 = tested on: SF-539
SK-MEL-28 = tested on: SK-MEL-28
SK-MEL-2 = tested on: SK-MEL-2
SK-MEL-5 = tested on: SK-MEL-5
SK-OV-3 = tested on: SK-OV-3
SN12C = tested on: SN12C
SNB-19 = tested on: SNB-19
SNB-75 = tested on: SNB-75
SR = tested on: SR
SW-620 = tested on: SW-620
T47D = tested on: T47D
TK-10 = tested on: TK-10
U-251 = tested on: U-251
UACC-257 = tested on: UACC-257
UACC-62 = tested on: UACC-62
UO-31 = tested on: UO-31
Hs-578T = tested on: Hs-578T
Malme-3M = tested on: Malme-3M
NCI-H522 = tested on: NCI-H522
SF-268 = tested on: SF-268
HCC 2998 = tested on: HCC 2998

## O=C(O)C(=O)Cc1ccc2c(c1)OCO2
786-0
  GI50: > 100 µM (inactive)
A498
  GI50: > 100 µM (inactive)
A549
  GI50: > 100 µM (inactive)
ACHN
  GI50: > 100 µM (inactive)
BT-549
  GI50: > 100 µM (inactive)
CAKI-1
  GI50: > 100 µM (inactive)
CCRF-CEM
  GI50: 18.9 µM (inactive)
COLO 205
  GI50: > 100 µM (inactive)
DU-145
  GI50: > 100 µM (inactive)
EKVX
  GI50: > 100 µM (inactive)
HCT-116
  GI50: > 100 µM (inactive)
HCT-15
  GI50: > 100 µM
HL-60
  GI50: > 100 µM (inactive)
HOP-62
  GI50: > 100 µM (inactive)
HOP-92
  GI50: > 100 µM (inactive)
HT-29
  GI50: > 100 µM (inactive)
IGROV-1
  GI50: > 100 µM (inactive)
K562
  GI50: > 100 µM (inactive)
KM12
  GI50: > 100 µM (inactive)
LOX IMVI
  GI50: > 100 µM (inactive)
M14
  GI50: > 100 µM (inactive)
MCF7
  GI50: > 100 µM (inactive)
MDA-MB-231
  GI50: > 100 µM (inactive)
MDA-MB-435
  GI50: > 100 µM (inactive)
MDA-N
  GI50: > 100 µM (inactive)
MOLT-4
  GI50: 83.8 µM (inactive)
NCI-H226
  GI50: 65.5 µM (inactive)
NCI-H23
  GI50: > 100 µM (inactive)
NCI-H460
  GI50: > 100 µM (inactive)
NCI/ADR-RES
  GI50: > 100 µM (inactive)
OVCAR-3
  GI50: > 100 µM (inactive)
OVCAR-4
  GI50: > 100 µM (inactive)
OVCAR-5
  GI50: > 100 µM (inactive)
OVCAR-8
  GI50: > 100 µM (inactive)
PC-3
  GI50: > 100 µM (inactive)
RPMI-8226
  GI50: > 100 µM (inactive)
RXF 393
  GI50: > 100 µM (inactive)
SF-295
  GI50: > 100 µM (inactive)
SF-539
  GI50: > 100 µM (inactive)
SK-MEL-28
  GI50: > 100 µM (inactive)
SK-MEL-2
  GI50: > 100 µM (inactive)
SK-MEL-5
  GI50: > 100 µM (inactive)
SK-OV-3
  GI50: > 100 µM (inactive)
SN12C
  GI50: > 100 µM (inactive)
SNB-19
  GI50: > 100 µM (inactive)
SNB-75
  GI50: > 100 µM (inactive)
SR
  GI50: > 100 µM (inactive)
SW-620
  GI50: > 100 µM (inactive)
T47D
  GI50: > 100 µM (inactive)
TK-10
  GI50: > 100 µM (inactive)
U-251
  GI50: > 100 µM (inactive)
UACC-257
  GI50: > 100 µM (inactive)
UACC-62
  GI50: > 100 µM (inactive)
UO-31
  GI50: > 100 µM (inactive)

## COc1cc(C2=C(c3cc(OC)c4ccccc4c3OC)C(=O)c3ccccc3C2=O)c(OC)c2ccccc12
786-0
  GI50: > 100 µM (inactive)
A498
  GI50: > 100 µM (inactive)
A549
  GI50: > 100 µM (inactive)
ACHN
  GI50: > 100 µM (inactive)
BT-549
  GI50: > 100 µM (inactive)
CAKI-1
  GI50: > 100 µM (inactive)
CCRF-CEM
  GI50: > 100 µM (inactive)
COLO 205
  GI50: > 100 µM (inactive)
DU-145
  GI50: > 100 µM (inactive)
EKVX
  GI50: > 100 µM (inactive)
HCT-116
  GI50: > 100 µM (inactive)
HCT-15
  GI50: > 100 µM
HL-60
  GI50: 10.2 µM (inactive)
HOP-62
  GI50: > 100 µM (inactive)
HOP-92
  GI50: > 100 µM (inactive)
HT-29
  GI50: > 100 µM (inactive)
Hs-578T
  GI50: > 100 µM (inactive)
IGROV-1
  GI50: > 100 µM (inactive)
KM12
  GI50: > 100 µM (inactive)
LOX IMVI
  GI50: > 100 µM (inactive)
M14
  GI50: 82.4 µM (inactive)
MCF7
  GI50: > 100 µM (inactive)
MDA-MB-435
  GI50: > 100 µM (inactive)
MDA-N
  GI50: > 100 µM (inactive)
MOLT-4
  GI50: > 100 µM (inactive)
Malme-3M
  GI50: 62.5 µM (inactive)
NCI-H226
  GI50: 59.6 µM (inactive)
NCI-H23
  GI50: > 100 µM (inactive)
NCI-H460
  GI50: > 100 µM (inactive)
NCI-H522
  GI50: > 100 µM (inactive)
NCI/ADR-RES
  GI50: > 100 µM (inactive)
OVCAR-3
  GI50: > 100 µM (inactive)
OVCAR-4
  GI50: 1.14 µM (inactive)
OVCAR-5
  GI50: 75.9 µM (inactive)
OVCAR-8
  GI50: > 100 µM (inactive)
PC-3
  GI50: > 100 µM (inactive)
RXF 393
  GI50: > 100 µM (inactive)
SF-268
  GI50: > 100 µM (inactive)
SF-295
  GI50: > 100 µM (inactive)
SF-539
  GI50: > 100 µM (inactive)
SK-MEL-28
  GI50: > 100 µM (inactive)
SK-MEL-2
  GI50: > 100 µM (inactive)
SK-MEL-5
  GI50: > 100 µM (inactive)
SK-OV-3
  GI50: > 100 µM (inactive)
SN12C
  GI50: > 100 µM (inactive)
SNB-19
  GI50: > 100 µM (inactive)
SNB-75
  GI50: > 100 µM (inactive)
SR
  GI50: > 100 µM (inactive)
SW-620
  GI50: > 100 µM (inactive)
T47D
  GI50: > 100 µM (inactive)
TK-10
  GI50: > 100 µM (inactive)
U-251
  GI50: > 100 µM (inactive)
UACC-257
  GI50: > 100 µM (inactive)
UACC-62
  GI50: > 100 µM (inactive)
UO-31
  GI50: > 100 µM (inactive)

## O=C1c2cccnc2S(=O)(=O)N1c1ccc(Oc2ccccc2)cc1
786-0
  GI50: > 100 µM (inactive)
A498
  GI50: > 100 µM (inactive)
A549
  GI50: 91.8 µM (inactive)
ACHN
  GI50: > 100 µM (inactive)
BT-549
  GI50: > 100 µM (inactive)
CAKI-1
  GI50: 51.8 µM (inactive)
CCRF-CEM
  GI50: 90.4 µM (inactive)
COLO 205
  GI50: > 100 µM (inactive)
DU-145
  GI50: > 100 µM (inactive)
EKVX
  GI50: > 100 µM (inactive)
HCC 2998
  GI50: > 100 µM (inactive)
HCT-116
  GI50: > 100 µM (inactive)
HCT-15
  GI50: > 100 µM
HL-60
  GI50: > 100 µM (inactive)
HOP-62
  GI50: > 100 µM (inactive)
HOP-92
  GI50: > 100 µM (inactive)
HT-29
  GI50: > 100 µM (inactive)
IGROV-1
  GI50: > 100 µM (inactive)
K562
  GI50: > 100 µM (inactive)
KM12
  GI50: > 100 µM (inactive)
M14
  GI50: > 100 µM (inactive)
MCF7
  GI50: > 100 µM (inactive)
MDA-MB-231
  GI50: > 100 µM (inactive)
MDA-MB-435
  GI50: > 100 µM (inactive)
MDA-N
  GI50: > 100 µM (inactive)
MOLT-4
  GI50: 92 µM (inactive)
Malme-3M
  GI50: > 100 µM (inactive)
NCI-H226
  GI50: > 100 µM (inactive)
NCI-H23
  GI50: > 100 µM (inactive)
NCI-H460
  GI50: > 100 µM (inactive)
NCI-H522
  GI50: > 100 µM (inactive)
NCI/ADR-RES
  GI50: > 100 µM (inactive)
OVCAR-3
  GI50: > 100 µM (inactive)
OVCAR-4
  GI50: > 100 µM (inactive)
OVCAR-5
  GI50: > 100 µM (inactive)
OVCAR-8
  GI50: > 100 µM (inactive)
PC-3
  GI50: 72.3 µM (inactive)
RPMI-8226
  GI50: > 100 µM (inactive)
RXF 393
  GI50: 69.7 µM (inactive)
SF-268
  GI50: > 100 µM (inactive)
SF-295
  GI50: > 100 µM (inactive)
SF-539
  GI50: > 100 µM (inactive)
SK-MEL-28
  GI50: > 100 µM (inactive)
SK-MEL-2
  GI50: > 100 µM (inactive)
SK-OV-3
  GI50: 41.4 µM (inactive)
SN12C
  GI50: > 100 µM (inactive)
SNB-19
  GI50: > 100 µM (inactive)
SNB-75
  GI50: > 100 µM (inactive)
SR
  GI50: 80 µM (inactive)
SW-620
  GI50: > 100 µM (inactive)
T47D
  GI50: > 100 µM (inactive)
U-251
  GI50: > 100 µM (inactive)
UACC-257
  GI50: 92.7 µM (inactive)
UACC-62
  GI50: > 100 µM (inactive)
UO-31
  GI50: > 100 µM (inactive)
